Results published in patent US12421257B2, “Compositions and methods for inhibiting group II intron RNA” (YALE UNIVERSITY, priority 2018, dated 2025).

System: S. cerevisiae wild-type (NP40-36a) and mtDNA intronless (XPM46) strains
Assay: S. cerevisiae growth assay, wild-type vs mtDNA intronless strain
Format: cell-based, Saccharomyces cerevisiae
Conditions: YPGE medium, 64 or 128 μg/mL
Description: Cultures of S. cerevisiae (Wild-type: NP40-36a, mtDNA intronless: XPM46 (Perez-Martinez et al., 2003, EMBO J, 22:5951-5961) were grown overnight with shaking to mid-log phase in YPGE at 30° C. Equal numbers of cells were harvested and serially-diluted 1:5. Cells were then plated on YPD or YPGE media containing DMSO or Intronistat A dissolved in DMSO (final concentration: 64 or 128 μg/mL). Plates were grown for one day (YPD plates), two days (YPGE DMSO plate), or 18 days (YPGE 18 (Intronistat A) plate) at 30° C. Experiment was replicated twice to ensure reproducibility of growth phenotype.

## CC(=O)c1ccc(-c2ccc3oc(C(=O)c4cc(O)c(O)c(O)c4)cc3c2)cc1 [APY-101, 1-(4-{2-[(3,4,5-Trihydroxyphenyl)carbonyl]-1-benzofuran-5-yl}phenyl)ethan-1-one]
  Growth of intronless vs wild-type strain in presence of compound (in words): intronless strain is much more resistant
